{"source": "patent US20070049564A1", "about": "(Wyeth, priority 2005, published 2007)", "key": {"S. aureus GC 6335": {"system": "S. aureus GC 6335", "assay": "MIC, broth microdilution", "settings": "Staphylococcus aureus"}, "P. aeruginosa GC 2214": {"system": "P. aeruginosa GC 2214", "assay": "MIC, broth microdilution", "settings": "Pseudomonas aeruginosa"}, "Staph. aureus Smith": {"system": "Staph. aureus Smith", "assay": "In vivo activity (oral, iv; ED50) against Staph. aureus Smith in mice", "procedure": "Representative examples of compounds of Formula I were tested for the oral efficacy using S. aureus Smith in mice."}, "E. faecalis GC 2265": {"system": "E. faecalis GC 2265", "assay": "MIC, broth microdilution", "settings": "Enterococcus faecalis"}, "S. aureus GC 4536": {"system": "S. aureus GC 4536", "assay": "MIC, broth microdilution", "settings": "Staphylococcus aureus"}, "E. coli GC 2271": {"system": "E. coli GC 2271", "assay": "MIC, broth microdilution", "settings": "Escherichia coli"}, "E. coli GC 4559": {"system": "E. coli GC 4559", "assay": "MIC, broth microdilution", "settings": "Escherichia coli"}, "E. coli GC 2232": {"system": "E. coli GC 2232", "assay": "MIC, broth microdilution", "settings": "Escherichia coli"}, "S. pyogenes GC 4563": {"system": "S. pyogenes GC 4563", "assay": "MIC, broth microdilution", "settings": "Streptococcus pyogenes"}, "S. pneumoniae+ GC 4465": {"system": "S. pneumoniae+ GC 4465", "assay": "MIC, broth microdilution", "settings": "Streptococcus pneumoniae"}, "E. coli": {"system": "E. coli", "assay": "Range of MIC for E. coli strains", "settings": "Escherichia coli"}, "S. aureus GC 6469": {"system": "S. aureus GC 6469", "assay": "MIC, broth microdilution", "settings": "Staphylococcus aureus"}, "E. coli GC 2270": {"system": "E. coli GC 2270", "assay": "MIC, broth microdilution", "settings": "Escherichia coli"}, "E. faecium GC 2243": {"system": "E. faecium GC 2243", "assay": "MIC, broth microdilution", "settings": "Enterococcus faecium"}, "S. agalactiae GC 4564": {"system": "S. agalactiae GC 4564", "assay": "MIC, broth microdilution", "settings": "Streptococcus agalactiae"}, "E. coli GC 1073": {"system": "E. coli GC 1073", "assay": "MIC, broth microdilution", "settings": "Escherichia coli"}, "S. aureus GC 2216": {"system": "S. aureus GC 2216", "assay": "MIC, broth microdilution", "settings": "Staphylococcus aureus"}, "E. faecalis GC 2242": {"system": "E. faecalis GC 2242", "assay": "MIC, broth microdilution", "settings": "Enterococcus faecalis"}, "E. coli GC 3226": {"system": "E. coli GC 3226", "assay": "MIC, broth microdilution", "settings": "Escherichia coli"}, "c. albicans GC 3066": {"system": "c. albicans GC 3066", "assay": "MIC, broth microdilution"}}, "note": "Where two headings read alike, the source gives them in different places.", "data": [{"smiles": "CCCN(CC(=O)Nc1cc(N(C)C)c2c(c1O)C(=O)C1=C(O)[C@]3(O)C(=O)C(C(N)=O)=C(O)[C@@H](N(C)C)[C@@H]3C[C@@H]1C2)C(=O)OCOC(=O)c1ccc(-c2ccccc2)cc1", "note": "[Example 24, ({[(2-{[(5aR,6aS,7S,10aS)-9-(aminocarbonyl)-4,7-bis(dimethylamino)-1,8,10a,11-tetrahydroxy-10,12-dioxo-5,5a,6,6a,7,10,10a,12-octahydrotetracen-2-yl]amino}-2-oxoethyl)(propyl)amino]carbonyl}oxy)methyl 1,1′-biphenyl-4-carboxylate]", "values": [{"measurement": "MIC", "setting": "S. aureus GC 6335; GC6335, read-out: MINIMAL INHIBITORY CONCENTRATION MIC, pre-incubated in Mouse Serum", "result": 2, "unit": "µg/mL"}, {"measurement": "MIC", "setting": "S. aureus GC 6335; GC6335, read-out: MINIMAL INHIBITORY CONCENTRATION MIC, pre-incubated in Water", "result": 16, "unit": "µg/mL"}, {"measurement": "MIC", "setting": "P. aeruginosa GC 2214; GC2214, read-out: MINIMAL INHIBITORY CONCENTRATION MIC, pre-incubated in Mouse Serum", "result": 16, "unit": "µg/mL"}, {"measurement": "MIC", "setting": "P. aeruginosa GC 2214; GC2214, read-out: MINIMAL INHIBITORY CONCENTRATION MIC, pre-incubated in Water", "result": "> 64", "unit": "µg/mL"}, {"measurement": "ED50", "setting": "Staph. aureus Smith; Staphylococcus aureus, in Mus musculus, po, read-out: ED50 Staph Smith SOD", "result": 27, "unit": "mg/kg"}, {"measurement": "ED50", "setting": "Staph. aureus Smith; iv, read-out: ED50 Staph Smith SIV", "result": 0.59, "unit": "mg/kg"}, {"measurement": "MIC", "setting": "E. faecalis GC 2265; GC2265, read-out: MINIMAL INHIBITORY CONCENTRATION MIC, pre-incubated in Mouse Serum", "result": 2, "unit": "µg/mL"}, {"measurement": "MIC", "setting": "E. faecalis GC 2265; GC2265, read-out: MINIMAL INHIBITORY CONCENTRATION MIC, pre-incubated in Water", "result": 32, "unit": "µg/mL"}, {"measurement": "MIC", "setting": "S. aureus GC 4536; GC4536, read-out: MINIMAL INHIBITORY CONCENTRATION MIC, pre-incubated in Mouse Serum", "result": 1, "unit": "µg/mL"}, {"measurement": "MIC", "setting": "S. aureus GC 4536; GC4536, read-out: MINIMAL INHIBITORY CONCENTRATION MIC, pre-incubated in Water", "result": 4, "unit": "µg/mL"}, {"measurement": "MIC", "setting": "E. coli GC 2271; GC2271, read-out: MINIMAL INHIBITORY CONCENTRATION MIC, pre-incubated in Mouse Serum", "result": 0.5, "unit": "µg/mL"}, {"measurement": "MIC", "setting": "E. coli GC 2271; GC2271, read-out: MINIMAL INHIBITORY CONCENTRATION MIC, pre-incubated in Water", "result": "> 64", "unit": "µg/mL"}, {"measurement": "MIC", "setting": "E. coli GC 4559; GC4559, read-out: MINIMAL INHIBITORY CONCENTRATION MIC, pre-incubated in Mouse Serum", "result": 1, "unit": "µg/mL"}, {"measurement": "MIC", "setting": "E. coli GC 4559; GC4559, read-out: MINIMAL INHIBITORY CONCENTRATION MIC, pre-incubated in Water", "result": "> 64", "unit": "µg/mL"}, {"measurement": "MIC", "setting": "E. coli GC 2232; GC2232, read-out: MINIMAL INHIBITORY CONCENTRATION MIC, pre-incubated in Mouse Serum", "result": 0.5, "unit": "µg/mL"}, {"measurement": "MIC", "setting": "E. coli GC 2232; GC2232, read-out: MINIMAL INHIBITORY CONCENTRATION MIC, pre-incubated in Water", "result": "> 64", "unit": "µg/mL"}, {"measurement": "MIC", "setting": "S. pyogenes GC 4563; GC4563, read-out: MINIMAL INHIBITORY CONCENTRATION MIC, pre-incubated in Mouse Serum", "result": "< 0.06", "unit": "µg/mL"}, {"measurement": "MIC", "setting": "S. pyogenes GC 4563; GC4563, read-out: MINIMAL INHIBITORY CONCENTRATION MIC, pre-incubated in Water", "result": "< 0.06", "unit": "µg/mL"}, {"measurement": "MIC", "setting": "S. pneumoniae+ GC 4465; read-out: MINIMAL INHIBITORY CONCENTRATION MIC, pre-incubated in Mouse Serum", "result": 2, "unit": "µg/mL"}, {"measurement": "MIC", "setting": "S. pneumoniae+ GC 4465; read-out: MINIMAL INHIBITORY CONCENTRATION MIC, pre-incubated in Water", "result": 1, "unit": "µg/mL"}, {"measurement": "MIC", "setting": "E. coli; 20 h, read-out: Range of MIC, E. coli (Mouse Serum)", "result": "0.5 to 2", "unit": "µg/mL"}, {"measurement": "MIC", "setting": "E. coli; read-out: Range of MIC, E. coli (Water)", "result": "> 64", "unit": "µg/mL"}, {"measurement": "MIC", "setting": "E. coli; read-out: Range of MIC, E. coli (mouse serum)", "result": "0.5 to 2", "unit": "µg/mL"}, {"measurement": "MIC", "setting": "E. coli; read-out: Range of MIC, E. coli (water)", "result": "> 64", "unit": "µg/mL"}, {"measurement": "MIC", "setting": "S. aureus GC 6469; GC6469, read-out: MINIMAL INHIBITORY CONCENTRATION MIC, pre-incubated in Mouse Serum", "result": 4, "unit": "µg/mL"}, {"measurement": "MIC", "setting": "S. aureus GC 6469; GC6469, read-out: MINIMAL INHIBITORY CONCENTRATION MIC, pre-incubated in Water", "result": "> 64", "unit": "µg/mL"}, {"measurement": "MIC", "setting": "E. coli GC 2270; GC2270, read-out: MINIMAL INHIBITORY CONCENTRATION MIC, pre-incubated in Mouse Serum", "result": 0.5, "unit": "µg/mL"}, {"measurement": "MIC", "setting": "E. coli GC 2270; GC2270, read-out: MINIMAL INHIBITORY CONCENTRATION MIC, pre-incubated in Water", "result": "> 64", "unit": "µg/mL"}, {"measurement": "MIC", "setting": "E. faecium GC 2243; GC2243, read-out: MINIMAL INHIBITORY CONCENTRATION MIC, pre-incubated in Mouse Serum", "result": 0.5, "unit": "µg/mL"}, {"measurement": "MIC", "setting": "E. faecium GC 2243; GC2243, read-out: MINIMAL INHIBITORY CONCENTRATION MIC, pre-incubated in Water", "result": 2, "unit": "µg/mL"}, {"measurement": "MIC", "setting": "S. agalactiae GC 4564; GC4564, read-out: MINIMAL INHIBITORY CONCENTRATION MIC, pre-incubated in Mouse Serum", "result": 0.5, "unit": "µg/mL"}, {"measurement": "MIC", "setting": "S. agalactiae GC 4564; GC4564, read-out: MINIMAL INHIBITORY CONCENTRATION MIC, pre-incubated in Water", "result": 8, "unit": "µg/mL"}, {"measurement": "MIC", "setting": "E. coli GC 1073; GC1073, read-out: MINIMAL INHIBITORY CONCENTRATION MIC, pre-incubated in Mouse Serum", "result": 1, "unit": "µg/mL"}, {"measurement": "MIC", "setting": "E. coli GC 1073; GC1073, read-out: MINIMAL INHIBITORY CONCENTRATION MIC, pre-incubated in Water", "result": "> 64", "unit": "µg/mL"}, {"measurement": "MIC", "setting": "S. aureus GC 2216; GC2216, read-out: MINIMAL INHIBITORY CONCENTRATION MIC, pre-incubated in Mouse Serum", "result": 0.5, "unit": "µg/mL"}, {"measurement": "MIC", "setting": "S. aureus GC 2216; GC2216, read-out: MINIMAL INHIBITORY CONCENTRATION MIC, pre-incubated in Water", "result": 4, "unit": "µg/mL"}, {"measurement": "MIC", "setting": "E. faecalis GC 2242; GC2242, read-out: MINIMAL INHIBITORY CONCENTRATION MIC, pre-incubated in Mouse Serum", "result": 2, "unit": "µg/mL"}, {"measurement": "MIC", "setting": "E. faecalis GC 2242; GC2242, read-out: MINIMAL INHIBITORY CONCENTRATION MIC, pre-incubated in Water", "result": 4, "unit": "µg/mL"}, {"measurement": "MIC", "setting": "E. coli GC 3226; GC3226, read-out: MINIMAL INHIBITORY CONCENTRATION MIC, pre-incubated in Mouse Serum", "result": 1, "unit": "µg/mL"}, {"measurement": "MIC", "setting": "E. coli GC 3226; GC3226, read-out: MINIMAL INHIBITORY CONCENTRATION MIC, pre-incubated in Water", "result": "> 64", "unit": "µg/mL"}, {"measurement": "MIC", "setting": "c. albicans GC 3066; Candida albicans, GC3066, read-out: MINIMAL INHIBITORY CONCENTRATION MIC", "result": "> 64", "unit": "µg/mL"}, {"measurement": "MINIMAL INHIBITORY CONCENTRATION MIC", "setting": "c. albicans GC 3066; pre-incubated in Water", "result": ">64", "unit": "UG/ML"}]}]}
